Source: US9376376B2, “Substitute diphenylamine compounds use thereof as antitumor agents” (SINOCHEM CORPORATION, priority 2012, dated 2016)

What was measured:
[1] = test system: lung cancer A549 cell; test: In vitro cell inhibition assay (MTT method), A549; assay type: cell-based, human; conditions: 48 h incubation
Experimental: (§1) The human cancer cell lines used for this assay were lung cancer A549 and leukemia HL-60.
(§2) The A549 or HL-60 cells were picked up from cell incubator, after washed for twice using PBS, cells were digested by 0.25% trypsin, and then add medium to terminate the digestion. After cells were collected using centrifuge and re-suspended, count cells under inverted microscope and add medium to make a density was 5×10^4 cells/mL. After 100 μL aliquots were added to each well of 96-well microtiter plates, cells were cultured in 5% incubator for overnight at 37° C., then the different concentration compounds were added to each well. After incubation for 48 h, MTT solution was added to each well and plates were then incubated for 4 h. The MTT tetrazolium was reduced to formazan by living cells. Then the formazan crystals were dissolved though adding DMSO to each well. The absorbance was read at 570 nm with a microplate reader.

[2] = test system: leukemia HL-60 cells; test: In vitro cell inhibition assay (MTT method), HL-60; assay type: cell-based, human; conditions: 48 h
Experimental: as §1, §2

Row | SMILES | Proliferation inhibitory effect of the compounds on A549 cell (% of Control) ([1]; 0.01 μM) | Proliferation inhibitory effect of the compounds on A549 cell (% of Control) ([1]; 0.1 μM) | Proliferation inhibitory effect of the compounds on A549 cell (% of Control) ([1]; 1 μM) | Proliferation inhibitory effect of the compounds on A549 cell (% of Control) ([1]; 10 μM) | Proliferation inhibitory effect of the compounds on A549 cell (% of Control) ([1]; 100 μM) | Proliferation inhibitory effect of the compounds on HL-60 cells (% of Control) ([2]; concentration 0.01 μM) | Proliferation inhibitory effect of the compounds on HL-60 cells (% of Control) ([2]; concentration 0.1 μM) | Proliferation inhibitory effect of the compounds on HL-60 cells (% of Control) ([2]; concentration 1 μM) | Proliferation inhibitory effect of the compounds on HL-60 cells (% of Control) ([2]; concentration 10 μM) | Proliferation inhibitory effect of the compounds on HL-60 cells (% of Control) ([2]; concentration 100 μM)
1 | N#Cc1c(Cl)c(Cl)c(Nc2ccccc2)c(C#N)c1Cl [Compound 6-1] | 13.1 % of Control | 12.1 % of Control | 16.9 % of Control | 20.4 % of Control | 19.8 % of Control | 11.5 % of Control | 10.4 % of Control | 18.8 % of Control | 63.9 % of Control | 61.9 % of Control
2 | N#Cc1c(Cl)c(Cl)c(Nc2ccccc2Cl)c(C#N)c1Cl [Compound 6-3] | – | – | – | – | – | −7.1 % of Control | −6.3 % of Control | −2.1 % of Control | 72.2 % of Control | 94.5 % of Control
3 | N#Cc1ccccc1Nc1c(Cl)c(Cl)c(C#N)c(Cl)c1C#N [Compound 6-10] | – | – | – | – | – | 21.8 % of Control | 16.1 % of Control | 9.8 % of Control | 78.5 % of Control | 77.1 % of Control
4 | N#Cc1ccc(Nc2c(Cl)c(Cl)c(C#N)c(Cl)c2C#N)cc1 [Compound 6-23] | −0.8 % of Control | −1.8 % of Control | 2.5 % of Control | 93.7 % of Control | 93.8 % of Control | 2.3 % of Control | 10.8 % of Control | 23.1 % of Control | 93.2 % of Control | 90.6 % of Control
5 | N#Cc1c(Cl)c(Cl)c(Nc2cc(C(F)(F)F)ccc2F)c(C#N)c1Cl [Compound 6-35] | 0.5 % of Control | −0.8 % of Control | 1.0 % of Control | 58.6 % of Control | 92.7 % of Control | −8.3 % of Control | −5.0 % of Control | −1.8 % of Control | 72.3 % of Control | 89.9 % of Control
6 | N#Cc1c(Cl)c(Cl)c(Nc2ccc(Cl)cc2Cl)c(C#N)c1Cl [Compound 6-39] | 18.3 % of Control | 18.8 % of Control | 19.6 % of Control | 24.9 % of Control | 92.6 % of Control | 11.9 % of Control | 14.7 % of Control | 31.0 % of Control | 78.5 % of Control | 80.8 % of Control
7 | N#Cc1c(Cl)c(Cl)c(Nc2c(Cl)cccc2Cl)c(C#N)c1Cl [Compound 6-41] | 3.8 % of Control | 0.7 % of Control | 13.1 % of Control | 84.0 % of Control | 92.0 % of Control | 6.5 % of Control | 3.9 % of Control | 7.8 % of Control | 86.5 % of Control | 87.9 % of Control
8 | N#Cc1cc(Cl)c(Nc2c(Cl)c(Cl)c(C#N)c(Cl)c2C#N)c(Cl)c1 [Compound 6-98] | −2.5 % of Control | −0.7 % of Control | 11.7 % of Control | 90.1 % of Control | 93.2 % of Control | −2.5 % of Control | 10.1 % of Control | 30.0 % of Control | 91.7 % of Control | 95.1 % of Control
9 | N#Cc1cc(Cl)cc(Cl)c1Nc1c(Cl)c(Cl)c(C#N)c(Cl)c1C#N [Compound 6-109] | – | – | – | – | – | 0.1 % of Control | 2.2 % of Control | 2.9 % of Control | 52.4 % of Control | 94.4 % of Control
10 | Cc1c(Cl)c([N+](=O)[O-])cc([N+](=O)[O-])c1Nc1ccc(C(F)(F)F)cc1 [Compounds 22-24] | – | – | – | – | – | −22.4 % of Control | −16.7 % of Control | −9.3 % of Control | 82.4 % of Control | 94.3 % of Control
11 | Cc1c(Cl)c([N+](=O)[O-])cc([N+](=O)[O-])c1Nc1ccc(C#N)cc1Cl [Compounds 22-61] | – | – | – | – | – | 5.2 % of Control | 7.8 % of Control | 11.0 % of Control | 85.7 % of Control | 89.8 % of Control
12 | Cc1c(Cl)c([N+](=O)[O-])cc([N+](=O)[O-])c1Nc1c(Cl)cc(Cl)cc1Cl [Compounds 22-98] | – | – | – | – | – | −7.3 % of Control | 1.3 % of Control | 9.5 % of Control | 77.7 % of Control | 91.0 % of Control
13 | Cc1c(Cl)c([N+](=O)[O-])cc([N+](=O)[O-])c1Nc1c(Cl)cc(C#N)cc1Cl [Compounds 22-104] | – | – | – | – | – | 4.1 % of Control | −7.3 % of Control | −2.1 % of Control | 60.5 % of Control | 94.0 % of Control
14 | COC(=O)c1cc(Cl)c(Nc2c([N+](=O)[O-])cc([N+](=O)[O-])c(Cl)c2C)c(Cl)c1 [Compounds 22-107] | – | – | – | – | – | 2.8 % of Control | −9.3 % of Control | −7.0 % of Control | 65.4 % of Control | 94.4 % of Control
15 | Cc1cc([N+](=O)[O-])cc([N+](=O)[O-])c1Nc1c(Cl)cc(C(F)(F)F)cc1Cl [Compounds 30-101] | – | – | – | – | – | −6.4 % of Control | −14.2 % of Control | −0.3 % of Control | 57.3 % of Control | 80.7 % of Control
